Assay results published in patent US10927104B2, “Ether compounds and uses thereof” (BioTheryX, Inc., priority 2017, dated 2021).

Assays:
Format in all cases: cell-based
IL-2 = experiment: Anti-CD3-induced IL-2 secretion in PBMCs (Mesoscale); details: Homo sapiens, PBMC, anti-CD3 stimulated PBMCs, 24 hr, vs DMSO control, read-out: IL-2 Fold Change; for fold induction at 0.1 µM: compound at 0.1 μM; for fold induction at 1 µM: compound at 1 μM
Procedure: FIG. 4 represents Anti-CD3-induced IL-2 secretion in PBMCs. 1 μg/mL anti-CD3 (OKT-3) antibody in PBS coated onto 96-well plates overnight at 4° C. Approximately, 550,000 PBMCs were added to each well, followed by addition of DMSO only (control) or Compound 1. Induction was measured after 24 hrs as fold difference from the DMSO stimulated control.
(§1) Frozen primary blood mononuclear cells (PBMCs) were purchased from AllCells. Cells were quick thawed, washed once with RPMI-1640/10% FBS.
For the IL-2 analysis, 96 well plates were precoated with 1 μg/mL anti-human CD3 antibody (OKT3, eBioscience Inc.). After washing with PBS, Compound 1 was added (50 μL/well) followed by PBMCs diluted at 3-4 million cells/mL (150 μL/well). Plates were incubated for 24 hr and the supernatants collected for Mesoscale IL-2 analysis.
(§2) Compound activity was measured as fold difference from the DMSO control. IL-1β activity is shown in FIG. 1; IL-6 activity is shown in FIG. 2; TNFα activity is shown in FIG. 3; and IL-2 activity is shown in FIG. 4. Additional data for compounds (shown as percent inhibition) at 10 μM is shown in Table 1; at 1 μM in Table 2; and at 0.1 μM in Table 3.

IL-6 = experiment: PBMC assay, LPS-induced IL-6 (Meso Scale); details: Homo sapiens, PBMCs, 100 ng/mL LPS 18-24 hrs; for inhibition at 0.1 µM: compound at 0.1 μM; for inhibition at 1 µM: compound at 1 μM
Procedure: (§3) FIG. 2 represents the activity against IL-6 in peripheral blood mononuclear cells (PBMCs), plated in 96 well plates and pretreated with compound for 1 hour and then induced with 100 ng/mL LPS for 18-24 hrs. Cytokines were measured according to MesoScale protocol. Negative control wells were treated with DMSO. Compound activity was measured as a percentage of LPS-induced activity.
as §1
(§4) 1% Penicillin/1% Streptomycin and plated in 96 well plates at 200,000 cells per well. Cells were pretreated with DMSO only, or Compound 1 for 1 hour and then induced with 100 ng/mL lipopolysaccharide (LPS) for 18-24 hrs. The supernatant was analyzed for IL-1 beta, IL-6, and TNFα, using Meso Scale assay according to manufacturer's protocol. The negative control wells were treated with DMSO.
as §2

IL-1β = experiment: PBMC assay, LPS-induced IL-1β (Meso Scale); details: Homo sapiens, PBMCs, 100 ng/mL LPS 18-24 hrs; for inhibition at 0.1 µM: compound at 0.1 μM; for inhibition at 1 µM: compound at 1 μM
Procedure: as §3, with “FIG. 1” for “FIG. 2”, “against IL-1-beta” for “against IL-6”, “Cytokines in the media” for “Cytokines”, “activity is” for “activity was”
as §1, §4, §2

Molm-13 cells = experiment: Cell viability assay (CellTiter-Glo), Molm-13 proliferation; details: Homo sapiens, MOLM-13, 72 h, 3 days; for inhibition at 1 µM: compound at 1 μM
Procedure: (§5) Molm-13 and MV-4-11 cells were cultivated in RPMI-1640 (10% FBS/1% pen-strep) and were plated in white walled 96-well plates at 20,000 cells/well.
(§6) Cells were treated with compound at the indicated concentration or DMSO (control) and the cultures were incubated for 3 days at 37° C. and 5% CO2. Following the incubation period, 100 μL of CellTiterGlow (CTG) reagent (CellTiter-Glo® Luminescent Cell Viability Assay, Promega (Madison, Wis.)) was added to each well. Following a 10 min incubation with shaking, luminescence was measured using a Victor Wallac Luminometer.

TNFα = experiment: PBMC assay, LPS-induced TNFα (Meso Scale); details: Homo sapiens, PBMCs, 100 ng/mL LPS 18-24 hrs; for inhibition at 0.1 µM: compound at 0.1 μM; for inhibition at 1 µM: compound at 1 μM
Procedure: as §3, with “FIG. 3” for “FIG. 2”, “against TNFα” for “against IL-6”, “Cytokines in the media” for “Cytokines”, “protocol. The negative” for “protocol. Negative”, “activity is” for “activity was”
as §1, §4, §2

MV-4-11 cells = experiment: Cell viability assay (CellTiter-Glo), MV-4-11 proliferation; details: Homo sapiens, MV4-11, 72 h, 3 days; for inhibition at 1 µM: compound at 1 μM; for inhibition at 10 µM: compound at 10 μM
Procedure: as §5, §6

Cc1cnc(Nc2ccc(OCCCNC(=O)NCc3ccc4c(c3OCc3ccc(CN5CCOCC5)cc3)CN([C@H]3CCC(=O)NC3=O)C4=O)cc2)nc1Nc1cccc(S(=O)(=O)NC(C)(C)C)c1 [Compound 23]
fold induction at 0.1 µM (IL-2): 0.9
fold induction at 1 µM (IL-2): 1.3
inhibition at 0.1 µM (IL-6): 23%
inhibition at 1 µM (IL-6): 32%
inhibition at 0.1 µM (IL-1β): 35%
inhibition at 1 µM (IL-1β): 79%
inhibition at 1 µM (Molm-13 cells): 30%
inhibition at 0.1 µM (TNFα): 48%
inhibition at 1 µM (TNFα): 88%
inhibition at 1 µM (MV-4-11 cells): 8%
inhibition at 10 µM (MV-4-11 cells): 79%

O=C1CCC[C@H](N2Cc3c(OCCc4ccc(CN5CCOCC5)cc4)cccc3C2=O)C(=O)N1 [Compound 26, (S)-3-(4-{2-[p-(Morpholinomethyl)phenyl]ethoxy}-2-isoindolinoyl)-2,7-azepanedione]
fold induction at 0.1 µM (IL-2): 2.6
fold induction at 1 µM (IL-2): 2.7
inhibition at 0.1 µM (IL-6): 5%
inhibition at 1 µM (IL-6): 8%
inhibition at 0.1 µM (IL-1β): 78%
inhibition at 1 µM (IL-1β): 81%
inhibition at 0.1 µM (Molm-13 cells; compound at 0.1 μM): 21%
inhibition at 1 µM (Molm-13 cells): 66%
inhibition at 0.1 µM (TNFα): 82%
inhibition at 1 µM (TNFα): 87%
inhibition at 1 µM (MV-4-11 cells): 2%
inhibition at 10 µM (MV-4-11 cells): 23%

Cc1cnc(Nc2ccc(OCCCNC(=O)NCc3ccc4c(c3OCc3ccc(CN5CCOCC5)cc3)CN([C@H]3CCCC(=O)NC3=O)C4=O)cc2)nc1Nc1cccc(S(=O)(=O)NC(C)(C)C)c1 [Compound 27]
fold induction at 0.1 µM (IL-2): 1.3
fold induction at 1 µM (IL-2): 1.5
inhibition at 0.1 µM (IL-6): 5%
inhibition at 1 µM (IL-6): 4%
inhibition at 0.1 µM (IL-1β): 50%
inhibition at 1 µM (IL-1β): 62%
inhibition at 1 µM (Molm-13 cells): 37%
inhibition at 0.1 µM (TNFα): 60%
inhibition at 1 µM (TNFα): 72%
inhibition at 1 µM (MV-4-11 cells): 10%
inhibition at 10 µM (MV-4-11 cells): 36%
